Results: the kinase profiling compilation of Christmann-Franck et al. (2016)
Each block holds one molecule with its values, some of them ahead of it.

Legend:
STK17A (human) = STK17A (human) (UniProt Q9UEE5); experiment: KINOMEscan competition binding; conditions: compound 10.0 µM
CSNK1G2 (human) = CSNK1G2 (human) (UniProt P78368); experiment: KINOMEscan competition binding; conditions: compound 10.0 µM
RIOK1 (human) = RIOK1 (human) (UniProt Q9BRS2); experiment: KINOMEscan competition binding; conditions: compound 10.0 µM
BMP2K (human) = BMP2K (human) (UniProt Q9NSY1); experiment: KINOMEscan competition binding; conditions: compound 10.0 µM
CSNK2A1 (human) = CSNK2A1 (human) (UniProt P68400); experiment: KINOMEscan competition binding; conditions: compound 10.0 µM
PIK3CB (human) = PIK3CB (human) (UniProt P42338); experiment: KINOMEscan competition binding; conditions: compound 10.0 µM
PIM1 (human) [1] = molecular target: PIM1 (human) (UniProt P11309); experiment: KINOMEscan competition binding; conditions: compound 10.0 µM
TAOK3 (human) = TAOK3 (human) (UniProt Q9H2K8); experiment: KINOMEscan competition binding; conditions: compound 10.0 µM
RIOK3 (human) = RIOK3 (human) (UniProt O14730); experiment: KINOMEscan competition binding; conditions: compound 10.0 µM
DAPK1 (human) = DAPK1 (human) (UniProt P53355); experiment: KINOMEscan competition binding; conditions: compound 10.0 µM
AAK1 (human) = AAK1 (human) (UniProt Q2M2I8); experiment: KINOMEscan competition binding; conditions: compound 10.0 µM
RPS6KA5 KD2 (human) = RPS6KA5 KD2 (human) (UniProt O75582); experiment: KINOMEscan competition binding; conditions: compound 10.0 µM
ZAP70 (human) = ZAP70 (human) (UniProt P43403); experiment: KINOMEscan competition binding; conditions: compound 10.0 µM
RPS6KA2 KD2 (human) = RPS6KA2 KD2 (human) (UniProt Q15349); experiment: KINOMEscan competition binding; conditions: compound 10.0 µM
PIM3 (human) = PIM3 (human) (UniProt Q86V86); experiment: KINOMEscan competition binding; conditions: compound 10.0 µM
HIPK1 (human) = HIPK1 (human) (UniProt Q86Z02); experiment: KINOMEscan competition binding; conditions: compound 10.0 µM
PIK3CG (human) = PIK3CG (human) (UniProt P48736); experiment: KINOMEscan competition binding; conditions: compound 10.0 µM
SRPK3 (human) = SRPK3 (human) (UniProt Q9UPE1); experiment: KINOMEscan competition binding; conditions: compound 10.0 µM
SRPK1 (human) = SRPK1 (human) (UniProt Q96SB4); experiment: KINOMEscan competition binding; conditions: compound 10.0 µM
PIM2 (human) [2] = molecular target: PIM2 (human) (UniProt Q9P1W9); experiment: KINOMEscan competition binding; conditions: compound 10.0 µM
CLK1 (human) = CLK1 (human) (UniProt P49759); experiment: KINOMEscan competition binding; conditions: compound 10.0 µM
RPS6KA4 KD2 (human) = RPS6KA4 KD2 (human) (UniProt O75676); experiment: KINOMEscan competition binding; conditions: compound 10.0 µM
PDGFRB (human) = PDGFRB (human) (UniProt P09619); experiment: KINOMEscan competition binding; conditions: compound 10.0 µM
CSNK2A2 (human) = CSNK2A2 (human) (UniProt P19784); experiment: KINOMEscan competition binding; conditions: compound 10.0 µM
[3] = system: EIF2AK4 KD2 (human), Q9P2K8 [S808G]; experiment: KINOMEscan competition binding; conditions: compound 10.0 µM
CLK2 (human) = CLK2 (human) (UniProt P49760); experiment: KINOMEscan competition binding; conditions: compound 10.0 µM
STK17B (human) = STK17B (human) (UniProt O94768); experiment: KINOMEscan competition binding; conditions: compound 10.0 µM
PLK1 (human) = PLK1 (human) (UniProt P53350); experiment: KINOMEscan competition binding; conditions: compound 10.0 µM
DAPK3 (human) = DAPK3 (human) (UniProt O43293); experiment: KINOMEscan competition binding; conditions: compound 10.0 µM
DAPK2 (human) = DAPK2 (human) (UniProt Q9UIK4); experiment: KINOMEscan competition binding; conditions: compound 10.0 µM
BTK (human) = BTK (human) (UniProt Q06187); experiment: KINOMEscan competition binding; conditions: compound 10.0 µM
MAPK10 (human) = MAPK10 (human) (UniProt P53779); experiment: KINOMEscan competition binding; conditions: compound 10.0 µM
ACVR2B (human) = ACVR2B (human) (UniProt Q13705); experiment: KINOMEscan competition binding; conditions: compound 10.0 µM
TTK (human) = TTK (human) (UniProt P33981); experiment: KINOMEscan competition binding; conditions: compound 10.0 µM
TLK1 (human) = TLK1 (human) (UniProt Q9UKI8); experiment: KINOMEscan competition binding; conditions: compound 10.0 µM
DYRK1B (human) = DYRK1B (human) (UniProt Q9Y463); experiment: KINOMEscan competition binding; conditions: compound 10.0 µM
MAP3K7 (human) = MAP3K7 (human) (UniProt O43318); experiment: KINOMEscan competition binding; conditions: compound 10.0 µM
RIOK2 (human) = RIOK2 (human) (UniProt Q9BVS4); experiment: KINOMEscan competition binding; conditions: compound 10.0 µM
RPS6KA6 KD2 (human) = RPS6KA6 KD2 (human) (UniProt Q9UK32); experiment: KINOMEscan competition binding; conditions: compound 10.0 µM
PIK3CD (human) = PIK3CD (human) (UniProt O00329); experiment: KINOMEscan competition binding; conditions: compound 10.0 µM
TAOK1 (human) = TAOK1 (human) (UniProt Q7L7X3); experiment: KINOMEscan competition binding; conditions: compound 10.0 µM
MAP2K4 (human) = MAP2K4 (human) (UniProt P45985); experiment: KINOMEscan competition binding; conditions: compound 10.0 µM
[4] = molecular target: TYK2 JH2 pseudokinase (human) (UniProt P29597); experiment: KINOMEscan competition binding; conditions: compound 10.0 µM
MAP2K3 (human) = MAP2K3 (human) (UniProt P46734); experiment: KINOMEscan competition binding; conditions: compound 10.0 µM
TGFBR2 (human) = TGFBR2 (human) (UniProt P37173); experiment: KINOMEscan competition binding; conditions: compound 10.0 µM
PLK4 (human) = PLK4 (human) (UniProt O00444); experiment: KINOMEscan competition binding; conditions: compound 10.0 µM
STK24 (human) = STK24 (human) (UniProt Q9Y6E0); experiment: KINOMEscan competition binding; conditions: compound 10.0 µM
MKNK2 (human) = MKNK2 (human) (UniProt Q9HBH9); experiment: KINOMEscan competition binding; conditions: compound 10.0 µM
MAPK8 (human) = MAPK8 (human) (UniProt P45983); experiment: KINOMEscan competition binding; conditions: compound 10.0 µM
GSK3A (human) = GSK3A (human) (UniProt P49840); experiment: KINOMEscan competition binding; conditions: compound 10.0 µM
NUAK2 (human) = NUAK2 (human) (UniProt Q9H093); experiment: KINOMEscan competition binding; conditions: compound 10.0 µM
CSNK1D (human) = CSNK1D (human) (UniProt P48730); experiment: KINOMEscan competition binding; conditions: compound 10.0 µM
CDK7 (human) = CDK7 (human) (UniProt P50613); experiment: KINOMEscan competition binding; conditions: compound 10.0 µM
PAK2 (human) = PAK2 (human) (UniProt Q13177); experiment: KINOMEscan competition binding; conditions: compound 10.0 µM
ACVR2A (human) = ACVR2A (human) (UniProt P27037); experiment: KINOMEscan competition binding; conditions: compound 10.0 µM
GAK (human) = GAK (human) (UniProt O14976); experiment: KINOMEscan competition binding; conditions: compound 10.0 µM
MYLK4 (human) = MYLK4 (human) (UniProt Q86YV6); experiment: KINOMEscan competition binding; conditions: compound 10.0 µM
CLK4 (human) = CLK4 (human) (UniProt Q9HAZ1); experiment: KINOMEscan competition binding; conditions: compound 10.0 µM
RPS6KA1 KD2 (human) = RPS6KA1 KD2 (human) (UniProt Q15418); experiment: KINOMEscan competition binding; conditions: compound 10.0 µM
[5] = molecular target: JAK1 JH2 pseudokinase (human) (UniProt P23458); experiment: KINOMEscan competition binding; conditions: compound 10.0 µM
PIM1 (human) [6] = molecular target: PIM1 (human) (UniProt P11309); experiment: SelectScreen, TR FRET
PIM2 (human) [7] = molecular target: PIM2 (human) (UniProt Q9P1W9); experiment: SelectScreen, TR FRET

Sequence of PIM2 (human) (Q9P1W9 whole entry, looked up): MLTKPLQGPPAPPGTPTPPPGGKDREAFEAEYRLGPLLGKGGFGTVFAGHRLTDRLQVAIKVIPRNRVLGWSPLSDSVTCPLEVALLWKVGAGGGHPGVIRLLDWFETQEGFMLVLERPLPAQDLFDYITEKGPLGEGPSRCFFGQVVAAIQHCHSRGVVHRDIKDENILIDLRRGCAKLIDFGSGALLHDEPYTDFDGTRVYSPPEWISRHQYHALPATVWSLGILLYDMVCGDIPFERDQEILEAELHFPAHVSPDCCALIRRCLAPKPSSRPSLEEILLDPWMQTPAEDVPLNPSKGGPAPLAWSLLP
Sequence of PIM1 (human) (P11309 whole entry, looked up): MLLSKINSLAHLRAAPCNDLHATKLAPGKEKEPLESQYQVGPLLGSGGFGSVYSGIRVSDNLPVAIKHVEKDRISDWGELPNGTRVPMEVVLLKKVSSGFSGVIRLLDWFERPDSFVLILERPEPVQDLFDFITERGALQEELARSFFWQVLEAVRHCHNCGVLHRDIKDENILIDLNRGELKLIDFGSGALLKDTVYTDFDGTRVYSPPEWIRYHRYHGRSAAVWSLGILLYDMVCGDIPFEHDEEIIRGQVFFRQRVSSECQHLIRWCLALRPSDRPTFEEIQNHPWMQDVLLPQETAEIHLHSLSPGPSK
Sequence of PIK3CB (human) (P42338 whole entry, looked up): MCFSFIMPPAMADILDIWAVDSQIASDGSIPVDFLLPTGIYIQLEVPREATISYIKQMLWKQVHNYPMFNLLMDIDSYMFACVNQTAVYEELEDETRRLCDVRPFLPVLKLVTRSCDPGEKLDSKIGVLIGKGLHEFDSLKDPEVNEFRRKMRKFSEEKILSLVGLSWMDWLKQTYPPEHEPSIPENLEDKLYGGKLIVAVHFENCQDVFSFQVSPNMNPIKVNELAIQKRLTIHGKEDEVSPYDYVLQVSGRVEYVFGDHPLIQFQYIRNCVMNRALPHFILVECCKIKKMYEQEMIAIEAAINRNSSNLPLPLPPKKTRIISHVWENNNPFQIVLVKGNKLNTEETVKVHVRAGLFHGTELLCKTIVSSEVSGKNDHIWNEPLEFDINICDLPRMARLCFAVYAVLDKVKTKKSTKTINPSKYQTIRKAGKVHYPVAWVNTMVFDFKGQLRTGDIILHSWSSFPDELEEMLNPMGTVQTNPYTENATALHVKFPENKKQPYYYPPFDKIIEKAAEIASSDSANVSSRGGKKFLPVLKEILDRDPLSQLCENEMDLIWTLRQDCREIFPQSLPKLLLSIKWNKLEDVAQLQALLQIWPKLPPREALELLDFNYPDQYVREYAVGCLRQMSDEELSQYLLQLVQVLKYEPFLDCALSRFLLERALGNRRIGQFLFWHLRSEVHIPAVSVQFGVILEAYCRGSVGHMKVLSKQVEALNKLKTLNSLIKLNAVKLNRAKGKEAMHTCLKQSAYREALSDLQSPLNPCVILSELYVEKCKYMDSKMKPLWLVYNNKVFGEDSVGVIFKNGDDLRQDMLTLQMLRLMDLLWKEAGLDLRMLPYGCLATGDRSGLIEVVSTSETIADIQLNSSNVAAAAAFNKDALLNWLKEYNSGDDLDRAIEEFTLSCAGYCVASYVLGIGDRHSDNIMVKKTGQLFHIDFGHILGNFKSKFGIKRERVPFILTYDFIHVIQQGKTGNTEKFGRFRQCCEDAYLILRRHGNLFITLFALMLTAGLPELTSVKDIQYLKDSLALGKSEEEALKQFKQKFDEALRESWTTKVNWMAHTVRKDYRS
Sequence of ZAP70 (human) (P43403 whole entry, looked up): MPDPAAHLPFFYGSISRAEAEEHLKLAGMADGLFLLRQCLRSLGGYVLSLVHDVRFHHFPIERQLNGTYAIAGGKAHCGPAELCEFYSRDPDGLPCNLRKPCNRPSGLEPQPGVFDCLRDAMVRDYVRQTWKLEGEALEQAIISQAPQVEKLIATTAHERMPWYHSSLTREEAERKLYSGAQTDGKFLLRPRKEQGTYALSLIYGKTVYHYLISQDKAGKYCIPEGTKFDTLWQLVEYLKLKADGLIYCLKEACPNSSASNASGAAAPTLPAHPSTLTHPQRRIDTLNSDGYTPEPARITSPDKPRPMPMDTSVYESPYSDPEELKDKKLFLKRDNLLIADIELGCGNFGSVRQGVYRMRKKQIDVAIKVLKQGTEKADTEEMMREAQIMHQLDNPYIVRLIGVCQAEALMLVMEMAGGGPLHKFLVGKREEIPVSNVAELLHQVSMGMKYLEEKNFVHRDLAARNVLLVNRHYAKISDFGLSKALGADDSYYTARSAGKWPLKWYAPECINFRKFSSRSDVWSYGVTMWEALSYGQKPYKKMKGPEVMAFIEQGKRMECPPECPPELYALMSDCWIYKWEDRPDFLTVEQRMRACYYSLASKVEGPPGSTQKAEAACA
Sequence of STK17A (human) (Q9UEE5 whole entry, looked up): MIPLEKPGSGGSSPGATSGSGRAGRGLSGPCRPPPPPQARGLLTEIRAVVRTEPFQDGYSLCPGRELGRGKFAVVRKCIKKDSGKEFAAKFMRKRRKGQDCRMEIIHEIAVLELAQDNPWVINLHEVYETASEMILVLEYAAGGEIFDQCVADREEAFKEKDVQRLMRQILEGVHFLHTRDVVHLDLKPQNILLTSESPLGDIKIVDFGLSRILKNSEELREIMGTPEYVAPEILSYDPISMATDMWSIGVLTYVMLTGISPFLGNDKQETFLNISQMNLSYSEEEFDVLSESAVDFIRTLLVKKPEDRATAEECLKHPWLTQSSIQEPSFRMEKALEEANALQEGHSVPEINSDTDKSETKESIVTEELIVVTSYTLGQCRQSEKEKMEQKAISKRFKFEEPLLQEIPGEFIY
Sequence of CLK1 (human) (P49759 whole entry, looked up): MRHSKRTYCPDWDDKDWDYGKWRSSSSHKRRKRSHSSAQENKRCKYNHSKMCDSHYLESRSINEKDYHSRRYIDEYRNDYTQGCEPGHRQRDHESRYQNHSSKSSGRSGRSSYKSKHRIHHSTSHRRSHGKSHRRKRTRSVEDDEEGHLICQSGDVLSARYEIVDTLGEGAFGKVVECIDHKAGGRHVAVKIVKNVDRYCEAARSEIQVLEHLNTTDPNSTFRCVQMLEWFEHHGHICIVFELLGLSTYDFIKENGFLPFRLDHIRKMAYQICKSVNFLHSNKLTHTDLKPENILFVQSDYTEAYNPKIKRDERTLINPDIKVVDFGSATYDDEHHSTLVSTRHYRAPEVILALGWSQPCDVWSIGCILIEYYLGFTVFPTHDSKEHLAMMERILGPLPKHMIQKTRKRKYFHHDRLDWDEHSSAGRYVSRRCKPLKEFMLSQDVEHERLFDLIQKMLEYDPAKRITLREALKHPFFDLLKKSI
Sequence of DAPK2 (human) (Q9UIK4 whole entry, looked up): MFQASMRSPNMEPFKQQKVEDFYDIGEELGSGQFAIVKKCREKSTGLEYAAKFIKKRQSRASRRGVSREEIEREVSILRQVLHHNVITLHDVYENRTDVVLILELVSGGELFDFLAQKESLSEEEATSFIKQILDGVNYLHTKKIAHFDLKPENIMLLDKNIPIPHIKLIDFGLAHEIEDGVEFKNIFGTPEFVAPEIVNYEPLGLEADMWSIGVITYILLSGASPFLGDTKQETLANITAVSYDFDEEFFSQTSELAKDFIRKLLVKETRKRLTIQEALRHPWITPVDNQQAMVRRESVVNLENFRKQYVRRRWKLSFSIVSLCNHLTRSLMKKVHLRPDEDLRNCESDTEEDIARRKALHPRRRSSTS
Sequence of HIPK1 (human) (Q86Z02 whole entry, looked up): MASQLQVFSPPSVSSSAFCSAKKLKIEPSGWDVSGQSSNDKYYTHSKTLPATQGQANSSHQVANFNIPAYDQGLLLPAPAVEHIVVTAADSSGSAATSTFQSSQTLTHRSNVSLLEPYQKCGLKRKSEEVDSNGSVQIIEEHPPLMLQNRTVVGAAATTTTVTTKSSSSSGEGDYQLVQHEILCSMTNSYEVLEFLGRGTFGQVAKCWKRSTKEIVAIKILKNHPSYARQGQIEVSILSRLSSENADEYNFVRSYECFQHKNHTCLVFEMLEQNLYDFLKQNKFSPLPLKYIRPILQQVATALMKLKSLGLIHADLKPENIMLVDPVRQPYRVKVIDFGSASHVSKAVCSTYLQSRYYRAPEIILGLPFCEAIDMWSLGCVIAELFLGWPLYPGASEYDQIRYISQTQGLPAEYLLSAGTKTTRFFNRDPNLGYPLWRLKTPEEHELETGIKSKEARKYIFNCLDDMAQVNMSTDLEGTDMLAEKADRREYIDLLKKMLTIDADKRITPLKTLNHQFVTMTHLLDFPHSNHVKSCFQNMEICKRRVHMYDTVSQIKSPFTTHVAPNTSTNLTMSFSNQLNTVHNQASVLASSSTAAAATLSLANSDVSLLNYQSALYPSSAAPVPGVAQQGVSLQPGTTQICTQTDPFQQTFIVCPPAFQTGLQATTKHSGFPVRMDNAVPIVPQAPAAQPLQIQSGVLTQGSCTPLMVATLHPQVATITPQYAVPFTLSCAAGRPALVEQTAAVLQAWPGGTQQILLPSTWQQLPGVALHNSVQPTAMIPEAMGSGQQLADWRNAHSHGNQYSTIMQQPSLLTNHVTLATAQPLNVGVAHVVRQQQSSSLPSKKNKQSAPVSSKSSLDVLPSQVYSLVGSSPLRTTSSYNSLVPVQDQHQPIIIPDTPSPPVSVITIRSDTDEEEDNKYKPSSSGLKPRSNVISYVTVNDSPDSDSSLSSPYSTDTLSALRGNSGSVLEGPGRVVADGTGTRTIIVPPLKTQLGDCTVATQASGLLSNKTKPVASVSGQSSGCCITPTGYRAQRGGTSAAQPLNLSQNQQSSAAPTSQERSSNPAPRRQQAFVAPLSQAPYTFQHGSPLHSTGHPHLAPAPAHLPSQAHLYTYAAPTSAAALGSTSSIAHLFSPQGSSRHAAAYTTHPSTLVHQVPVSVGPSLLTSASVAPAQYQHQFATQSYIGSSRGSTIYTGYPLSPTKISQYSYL

kinase still bound, per cent of control (STK17A (human)): 6.3%
kinase still bound, per cent of control (CSNK1G2 (human)): 24%
kinase still bound, per cent of control (RIOK1 (human)): 14%
kinase still bound, per cent of control (BMP2K (human)): 22%
kinase still bound, per cent of control (CSNK2A1 (human)): 24%
kinase still bound, per cent of control (PIK3CB (human)): 2.4%
kinase still bound, per cent of control (PIM1 (human) [1]): 9.5%
kinase still bound, per cent of control (TAOK3 (human)): 26%
kinase still bound, per cent of control (RIOK3 (human)): 13%
kinase still bound, per cent of control (DAPK1 (human)): 3.6%
kinase still bound, per cent of control (AAK1 (human)): 4.4%
kinase still bound, per cent of control (RPS6KA5 KD2 (human)): 19%
kinase still bound, per cent of control (ZAP70 (human)): 11%
kinase still bound, per cent of control (RPS6KA2 KD2 (human)): 29%
kinase still bound, per cent of control (PIM3 (human)): 10%
kinase still bound, per cent of control (HIPK1 (human)): 9%
kinase still bound, per cent of control (PIK3CG (human)): 22%
kinase still bound, per cent of control (SRPK3 (human)): 28%
kinase still bound, per cent of control (SRPK1 (human)): 31%
kinase still bound, per cent of control (PIM2 (human) [2]): 1.2%
kinase still bound, per cent of control (CLK1 (human)): 16%
kinase still bound, per cent of control (RPS6KA4 KD2 (human)): 0.95%
kinase still bound, per cent of control (PDGFRB (human)): 0%
kinase still bound, per cent of control (CSNK2A2 (human)): 32%
kinase still bound, per cent of control [3]: 27%
kinase still bound, per cent of control (CLK2 (human)): 0.45%
kinase still bound, per cent of control (STK17B (human)): 0.6%
kinase still bound, per cent of control (PLK1 (human)): 17%
kinase still bound, per cent of control (DAPK3 (human)): 4.8%
kinase still bound, per cent of control (DAPK2 (human)): 6.4%
Structure (SMILES): O=C1NC(=O)/C(=C/c2c[nH]c(=O)c(-c3ccc(C(=O)Nc4ccc(N5CCNCC5)cc4)cc3)c2)S1

kinase still bound, per cent of control (STK17A (human)): 0.05%
kinase still bound, per cent of control (BTK (human)): 18%
kinase still bound, per cent of control (MAPK10 (human)): 31%
kinase still bound, per cent of control (ACVR2B (human)): 20%
kinase still bound, per cent of control (CSNK2A1 (human)): 26%
kinase still bound, per cent of control (PIK3CB (human)): 4.5%
kinase still bound, per cent of control (PIM1 (human) [1]): 4.9%
kinase still bound, per cent of control (TTK (human)): 21%
kinase still bound, per cent of control (DAPK1 (human)): 4.4%
kinase still bound, per cent of control (TLK1 (human)): 22%
kinase still bound, per cent of control (DYRK1B (human)): 7.4%
kinase still bound, per cent of control (MAP3K7 (human)): 34%
kinase still bound, per cent of control (RIOK2 (human)): 5.5%
kinase still bound, per cent of control (ZAP70 (human)): 8.2%
kinase still bound, per cent of control (RPS6KA6 KD2 (human)): 30%
kinase still bound, per cent of control (PIK3CD (human)): 23%
kinase still bound, per cent of control (TAOK1 (human)): 6%
kinase still bound, per cent of control (MAP2K4 (human)): 3.9%
kinase still bound, per cent of control (RPS6KA2 KD2 (human)): 24%
kinase still bound, per cent of control [4]: 2.2%
kinase still bound, per cent of control (PIM3 (human)): 4%
kinase still bound, per cent of control (HIPK1 (human)): 0.45%
kinase still bound, per cent of control (MAP2K3 (human)): 17%
kinase still bound, per cent of control (TGFBR2 (human)): 5.8%
kinase still bound, per cent of control (PLK4 (human)): 18%
kinase still bound, per cent of control (STK24 (human)): 27%
kinase still bound, per cent of control (MKNK2 (human)): 11%
kinase still bound, per cent of control (PIM2 (human) [2]): 0.45%
kinase still bound, per cent of control (MAPK8 (human)): 14%
kinase still bound, per cent of control (GSK3A (human)): 20%
kinase still bound, per cent of control (NUAK2 (human)): 21%
kinase still bound, per cent of control (CSNK1D (human)): 30%
kinase still bound, per cent of control (CDK7 (human)): 20%
kinase still bound, per cent of control (PAK2 (human)): 32%
kinase still bound, per cent of control (CLK1 (human)): 17%
kinase still bound, per cent of control (CSNK2A2 (human)): 24%
kinase still bound, per cent of control (ACVR2A (human)): 25%
kinase still bound, per cent of control (GAK (human)): 5%
kinase still bound, per cent of control (MYLK4 (human)): 32%
kinase still bound, per cent of control (CLK2 (human)): 7.7%
kinase still bound, per cent of control (CLK4 (human)): 20%
kinase still bound, per cent of control (STK17B (human)): 0.4%
kinase still bound, per cent of control (RPS6KA1 KD2 (human)): 17%
kinase still bound, per cent of control (DAPK3 (human)): 16%
kinase still bound, per cent of control (DAPK2 (human)): 12%
kinase still bound, per cent of control [5]: 30%
IC50 (PIM1 (human) [6]): 961 nM
IC50 (PIM2 (human) [7]): 1770 nM
Structure (SMILES): N=C1NC(=O)/C(=C/c2ccc(-c3cccc4cc[nH]c34)o2)S1
